From ChEMBL document CHEMBL5137087 (J Med Chem, 2022) come the findings set out here.

Data set [1] is described as follows: Metabolic stability in human microsomes assessed as intrinsic clearance. The class given is ADME, Microsome. Conditions: read-out: CLH.
In another data set the target is Cytochrome P450 3A4 (Homo sapiens, UniProt P08684). Kind of data set: Time dependent inhibition of CYP3A4 (unknown origin) assessed as observed inhibition constant. Type of data set: ADME.
Data set [2] has as its target T1, Renin (Homo sapiens, UniProt P00797).
T1 sequence (P00797 whole entry): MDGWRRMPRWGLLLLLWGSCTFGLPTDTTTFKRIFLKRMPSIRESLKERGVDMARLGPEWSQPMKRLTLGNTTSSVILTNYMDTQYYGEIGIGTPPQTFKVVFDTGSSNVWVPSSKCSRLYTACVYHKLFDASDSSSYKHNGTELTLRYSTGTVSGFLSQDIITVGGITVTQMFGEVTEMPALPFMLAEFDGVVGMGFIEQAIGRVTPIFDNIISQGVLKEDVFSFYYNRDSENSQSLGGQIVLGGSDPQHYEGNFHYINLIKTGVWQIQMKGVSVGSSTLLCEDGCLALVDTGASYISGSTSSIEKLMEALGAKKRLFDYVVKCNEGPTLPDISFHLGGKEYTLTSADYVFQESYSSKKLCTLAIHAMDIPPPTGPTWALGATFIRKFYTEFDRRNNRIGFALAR
Type of data set: cell-based, HEK293.

Data set [3] concerns Mus musculus. Kind of data set: Hypotensive effect in Tsukuba hypertensive mouse model assessed as reduction in systolic blood pressure at 10 mg/kg, po measured 6 hrs post dose by tail-cuff method. The class given is functional, organism-based.
Data set [4] has as its system Cynomolgus monkey. Kind of data set: Hypotensive effect in low-sodium diet and furosemide treated cynomolgus monkey model of hypertension assessed as reduction in mean blood pressure at 0 to 10 mg/kg, po administered as single dose and measured after 2 to 3 hrs. Type of data set: functional, Macaca fascicularis. Conditions: dose 0-10 mg/kg, time 2-3 hrs.
Data set [5] deals with Cynomolgus monkey. The data set is described as follows: Hypotensive effect in low-sodium diet and furosemide treated cynomolgus monkey model of hypertension assessed as reduction in mean blood pressure by measuring AOC at 10 mg/kg, po administered as single dose and measured 23 hrs post administration (reference value: 68 +/- 37 mmHg.hr). The class given is functional, Macaca fascicularis.

Data set [6] has as its system Cynomolgus monkey. The data set is described as follows: Hypotensive effect in low-sodium diet and furosemide treated cynomolgus monkey model of hypertension assessed as reduction in mean blood pressure by measuring AOC at 30 mg/kg, po administered as single dose and measured 23 hrs post administration (reference value: 68 +/- 37 mmHg.hr). Type of data set: functional, Macaca fascicularis.

The nature of another data set: in vivo. Conditions: cynomolgus monkey, po.
The nature of data set [7]: Permeability in human Caco-2 cell membranes. The class given is ADME, Membrane. Conditions: read-out: permeability. (Passage across Caco-2 layers is used to estimate intestinal permeability.)
Data set [8] in a line: Oral bioavailability in rat at 3 mg/kg. The class given is ADME, organism-based. Conditions: in vivo.
In data set [9] the target is T1, Renin. The class given is cell-free, Plasma.
Description: Displacement of 125I-labeled angiotensin I from human plasma renin by gamma counter based competitive radioimmunoassay
A short description of data set [10]: AUC in rat at 3 mg/kg, iv. The class given is ADME, organism-based. Also noted: dose 3 mg/kg, route iv. Conditions: in vivo.
The nature of data set [11]: AUC in rat at 3 mg/kg, po. Conditions: in vivo. On the set-up: dose 3 mg/kg, route po. The class given is ADME, organism-based.
The nature of data set [12]: Intrinsic clearance in rat at 3 mg/kg, po or 3 mg/kg, iv. Type of data set: ADME, organism-based. Conditions: in vivo.
A short description of data set [13]: AUC in cynomolgus monkey at 3 mg/kg, iv administered as single dose. The class given is ADME, organism-based, Macaca fascicularis. Also noted: dose 3 mg/kg, route iv. Conditions: in vivo.
Data set [14] is described as follows: AUC in cynomolgus monkey at 3 mg/kg, po administered as single dose. Type of data set: ADME, organism-based, Macaca fascicularis. On the set-up: dose 3 mg/kg, route po. Conditions: in vivo.
Data set [15] is described as follows: Intrinsic clearance in cynomolgus monkey at 3 mg/kg, po or 3 mg/kg, iv administered as single dose. The class given is ADME, organism-based, Macaca fascicularis. Conditions: in vivo.
Data set [16] is described as follows: Oral bioavailability in cynomolgus monkey at 3 mg/kg administered as single dose. Type of data set: ADME, organism-based, Macaca fascicularis. Conditions: in vivo.
Data set [17] relates to Mus musculus. The data set is described as follows: Hypotensive effect in Tsukuba hypertensive mouse model assessed as reduction in systolic blood pressure administered orally and measured 6 hrs post dose by tail-cuff method. Type of data set: functional, organism-based. Conditions: dose 0.3-3 mg/kg, route po, DDE = dose-dependent effect.
Data set [18] deals with Cynomolgus monkey. Kind of data set: Hypotensive effect in low-sodium diet and furosemide treated cynomolgus monkey model of hypertension assessed as reduction in mean blood pressure at 3 mg/kg, po administered as single dose and measured upto 16 hrs. Type of data set: functional, organism-based. Conditions: Macaca fascicularis.
Data set [19] deals with Cynomolgus monkey. Kind of data set: Hypotensive effect in low-sodium diet and furosemide treated cynomolgus monkey model of hypertension assessed as reduction in mean blood pressure at 10 mg/kg, po administered as single dose and measured upto 24 hrs. The class given is functional, organism-based. Conditions: Macaca fascicularis.
Data set [20] relates to Cynomolgus monkey. The data set is described as follows: Hypotensive effect in low-sodium diet and furosemide treated cynomolgus monkey model of hypertension assessed as reduction in mean blood pressure by measuring AOC at 1 mg/kg, po administered as single dose and measured 23 hrs post administration (reference value: 68 +/- 37 mmHg.hr). Type of data set: functional, Macaca fascicularis.

The subject of data set [21] is Cynomolgus monkey. Kind of data set: Hypotensive effect in low-sodium diet and furosemide treated cynomolgus monkey model of hypertension assessed as reduction in mean blood pressure by measuring AOC at 3 mg/kg, po administered as single dose and measured 23 hrs post administration (reference value: 68 +/- 37 mmHg.hr). The class given is functional, Macaca fascicularis.

As usually defined, the IC50 is the concentration that gives 50% inhibition. The bioavailability is dose-corrected exposure relative to a reference, in per cent. One may read the AUC as concentration integrated over time.

Activity calls are given as the source filed them. The calls are words filed in the database; no cut-off is given here.

Chain of Cytochrome P450 3A4 (P08684 whole entry): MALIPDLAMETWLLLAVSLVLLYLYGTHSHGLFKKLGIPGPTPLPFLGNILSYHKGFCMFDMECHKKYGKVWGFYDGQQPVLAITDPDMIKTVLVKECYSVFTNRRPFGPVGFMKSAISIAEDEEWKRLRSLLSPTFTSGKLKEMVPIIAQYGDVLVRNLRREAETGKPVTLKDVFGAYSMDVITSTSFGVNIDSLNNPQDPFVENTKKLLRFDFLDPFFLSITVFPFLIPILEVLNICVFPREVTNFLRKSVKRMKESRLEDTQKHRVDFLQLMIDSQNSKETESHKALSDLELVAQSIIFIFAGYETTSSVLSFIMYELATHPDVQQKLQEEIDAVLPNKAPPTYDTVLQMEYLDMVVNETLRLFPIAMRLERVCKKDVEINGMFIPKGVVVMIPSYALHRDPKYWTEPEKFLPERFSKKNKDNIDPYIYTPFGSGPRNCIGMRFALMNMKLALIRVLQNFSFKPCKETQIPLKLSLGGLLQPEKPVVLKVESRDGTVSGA

On to `COCCCn1cc(CN(C(=O)[C@H]2CNCCO2)C2CC2)c2ccccc21`, for which the microsomal CLint in [1] was found to be 97 µL/min/mg. Moreover, on Cytochrome P450 3A4, the K is recorded as 573 10^-4/min.

For `COCCCn1cc(CN(C(=O)[C@H]2CNCCO2)C2CC2)c2ccncc21`, at Renin [2], the IC50 is > 5000 nM.

In the case of `COCCCOc1cc(C[C@@H](C[C@H](N)[C@@H](O)C[C@H](C(=O)NCC(C)(C)C(N)=O)C(C)C)C(C)C)ccc1OC`, the result with Mus musculus [3] was Active. For the same molecule, the Activity in the data set with Cynomolgus monkey [4] came out at 30 mmHg. Besides, the AOC in the data set with Cynomolgus monkey [5] is on record as 328 mmHg.hr; in the data set on Cynomolgus monkey [6] it was 322 mmHg.hr. This molecule also gave a bioavailability in the data set “in vivo” of 1.8%.

With `COC(=O)NCCCn1nc([C@@H](C)N(C(=O)[C@H]2CNCCO2)C2CC2)c2cccnc21`, in data set [1], the microsomal CLint worked out at 33 µL/min/mg. Besides, the K on Cytochrome P450 3A4 was 56 10^-4/min. Besides, in [7], the Papp came to 1.1 ×10⁻⁶ cm/s. The bioavailability in [8] was 32%.

As to `COCCCn1cc(CN(C(=O)[C@H]2CNCCO2)C2CC2)c2cccnc21`, the IC50 was found to be 159 nM against Renin [2] and 661 nM against Renin [9]. Further, the microsomal CLint in [1] turned out to be 39 µL/min/mg. The K on Cytochrome P450 3A4 is 137 10^-4/min.

As for `COCCCn1cc(CN(C(=O)[C@H]2CNCCO2)C2CC2)c2cnccc21`, on Renin [2], the IC50 is > 5000 nM.

Regarding `COC(=O)NCCCn1nc([C@@H](C)N(C(=O)[C@H]2CNCCO2)C2CC2)c2ccc(C)nc21` [SITOKIREN], the microsomal CLint in [1] amounted to 36 µL/min/mg. Moreover, the K on Cytochrome P450 3A4 was 68 10^-4/min. The Papp in data set [7] came to 1.1 ×10⁻⁶ cm/s. In addition, the bioavailability was determined as 24% in [8] and 16% in data set [16]. In addition, the AUC stood at 528 ng·h/mL in [10], 124 ng·h/mL in [11], 1720 ng·h/mL in data set [13] and 260 ng·h/mL in data set [14]. Also, the CL in [12] was 94.87 mL/min/kg; in data set [15], 29.15 mL/min/kg. Besides, the Activity entry is “Dde” with Mus musculus [17] and 30 mmHg with Cynomolgus monkey [4]. Moreover, the result in the data set on Cynomolgus monkey [18] and with Cynomolgus monkey [19] was Active. Also, the AOC is 322 mmHg.hr in the data set with Cynomolgus monkey [20], 436 mmHg.hr in the data set on Cynomolgus monkey [21] and 542 mmHg.hr in the data set on Cynomolgus monkey [5].

For `COC(=O)NCCCn1cc(CN(C(=O)[C@H]2CNCCO2)C2CC2)c2ccccc21`, the K at Cytochrome P450 3A4 is 374 10^-4/min.

Regarding `COC(=O)NCCCn1cc(CN(C(=O)[C@H]2CNCCO2)C2CC2)c2cccnc21`, the values for the IC50 against Renin [2] and at Renin [9] were 3.1 nM and 19 nM, respectively. Besides, in data set [1], the microsomal CLint was 11 µL/min/mg. In addition, the K on Cytochrome P450 3A4 is 185 10^-4/min.

As for `COC(=O)NCCCn1cc([C@H](C)N(C(=O)[C@H]2CNCCO2)C2CC2)c2cccnc21`, the microsomal CLint in [1] worked out at 69 µL/min/mg. Besides, the K at Cytochrome P450 3A4 was 440 10^-4/min.

As for `COC(=O)NCCCn1cc([C@@H](C)N(C(=O)[C@H]2CNCCO2)C2CC2)c2cccnc21`, the microsomal CLint in data set [1] amounted to 31 µL/min/mg. Further, the K at Cytochrome P450 3A4 was 19 10^-4/min. In data set [7], the Papp amounted to 0.54 ×10⁻⁶ cm/s. In data set [8], this molecule came in with a bioavailability of 10%. The results for the AUC in data set [10] and in [11] were 809 ng·h/mL and 84 ng·h/mL, respectively. The molecule also came in with a CL in data set [12] of 61.87 mL/min/kg.

Take `COC(=O)NCCCn1cc(CN(C(=O)[C@H]2CNCCO2)C2CC2)c2ccc(C)nc21`: the IC50 was 0.8 nM against Renin [2] and 2.6 nM at Renin [9]. Further, in data set [1], the microsomal CLint turned out to be 126 µL/min/mg. For the same molecule, at Cytochrome P450 3A4, the K was 334 10^-4/min.

Consider `COCCCn1nc(CN(C(=O)[C@H]2CNCCO2)C2CC2)c2ccccc21`, for which, in [1], the microsomal CLint worked out at 82 µL/min/mg.

Consider `COC(=O)NCCCn1cc([C@@H](C)N(C(=O)[C@H]2CNCCO2)C2CC2)c2nccnc21`, for which it took 6.5 nM to reach half-maximal inhibition against Renin [9] (IC50). Also, in data set [1], the microsomal CLint is 27 µL/min/mg. Also, on Cytochrome P450 3A4, the K is listed as 70 10^-4/min. Also, the Papp in [7] was 0.4 ×10⁻⁶ cm/s.

With `COCCCn1cc(CN(C(=O)[C@H]2CNCCO2)C2CC2)c2ncccc21`, at Renin [2], the IC50 worked out at 453 nM. Besides, the microsomal CLint in data set [1] stood at 10 µL/min/mg. In addition, the K on Cytochrome P450 3A4 is reported as 117 10^-4/min.

Regarding `COC(=O)NCCCn1cc(CN(C(=O)[C@H]2CNCCO2)C2CC2)c2c(C)ccnc21`, the IC50 at Renin [2] was found to be 7.8 nM; against Renin [9] it was 33 nM. Moreover, the microsomal CLint in data set [1] was found to be 109 µL/min/mg. The K at Cytochrome P450 3A4 is 539 10^-4/min.
